Assay results published in patent EP0430045B1, “Ascorbic acid tocopheryl phosphate diesters for inhibition of Maillard's reaction” (Senju Pharmaceutical Co., Ltd., priority 1989, dated 1991).

Target: T1, bovine serum albumine (Bos taurus, UniProt P02769)
T1 construct: purchased Sigma A-8022
Assay: Inhibition of furosine formation (non-enzymatic glycosylation of BSA by glucose, Maillard's reaction), furosine determined by HPLC
Assay type: biochemical
Conditions: inhibition rate of furosine formation; 5 mM test compound, 20 mg/ml BSA, 50 mM glucose, 50 mM phosphate buffer pH 7.3, 4 weeks at 37 °C
Experimental: Sample solutions as shown below were aseptically prepared from bovine serum albumine (No. A-8022, Sigma)(hereinafter referred to as BSA), 50 mM phosphate buffer solution (PH 7.3) and the test compound and aminoguanidine.
Normal sample; 20 mg/ml BSA in buffer solution Control sample: 20 mg/ml BSA and 50 mM glucose in buffer solution Test sample; 20 mg/ml BSA, 50 mM glucose and 5 mM test compound in buffer solution The sample solutions were kept for 4 weeks at 37 °C, and the amount of furosine which was formed by non-enzymatic glycosylation was determined by HPLC according to the method of Schleicher et al. [J. Clin. Biochem., 19:81-87 (1981).] Thus, the sample solutions after reaction were dialyzed, and aliquots of 1 ml were lyophylized and then hydrolyzed by the addition of 1 ml of 6 N hydrochloric acid followed by heating at 100 °C for 20 hours. After removal of hydrochloric acid by evaporation, 1 ml of water was added to each sample, and the samples were subjected to filtration using a filter with the pore size of 0.45 »m. The filtrate was used as the sample for HPLC. […] The absorbance peak whose ratio of peak area at […] was 3.9/1 was regarded as the peak corresponding to furosine.
Upon the area of the peak of furosine of each sample, the inhibition rate of furosine formation by the test compound was calculated as follows. […]

T1 sequence (P02769 25-607): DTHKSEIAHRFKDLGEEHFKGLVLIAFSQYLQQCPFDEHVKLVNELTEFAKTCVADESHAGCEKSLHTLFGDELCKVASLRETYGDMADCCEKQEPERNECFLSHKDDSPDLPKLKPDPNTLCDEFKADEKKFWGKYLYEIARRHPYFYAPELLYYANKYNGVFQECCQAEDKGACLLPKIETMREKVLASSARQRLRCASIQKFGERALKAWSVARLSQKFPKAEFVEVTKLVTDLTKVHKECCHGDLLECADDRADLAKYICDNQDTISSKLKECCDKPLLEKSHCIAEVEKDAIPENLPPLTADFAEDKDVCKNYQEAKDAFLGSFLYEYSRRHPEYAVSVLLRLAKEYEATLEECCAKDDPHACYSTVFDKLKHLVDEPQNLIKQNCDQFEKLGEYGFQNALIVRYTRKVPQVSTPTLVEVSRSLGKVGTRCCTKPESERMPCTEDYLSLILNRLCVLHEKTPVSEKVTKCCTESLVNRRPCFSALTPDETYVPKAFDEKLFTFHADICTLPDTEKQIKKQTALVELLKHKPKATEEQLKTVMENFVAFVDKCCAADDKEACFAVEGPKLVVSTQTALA

inhibition at 5000 µM: 7.5%
Compound: N=C(N)NN [Aminoguanidine]
